# Assay results from US20190290182A1, “METHOD OF DIAGNOSTIC RELEVANCE BASED ON TASTE RECOGNITION” (RANVIER HEALTH LIMITED, priority 2016, published 2019).
# Entries after “also recorded” stand apart in the source; their conditions may differ.
# How the values were obtained:
# healthy volunteers = conditions: healthy individuals; acute dose; two hours after administration; cited from earlier work
# [1] = system: individuals with untreated clinical depression; assay: Taste recognition thresholds before and two hours after acute paroxetine (SSRI) challenge; format: in vivo, human
# Protocol: Taste responses to sweet, salt, bitter and sour stimuli were then determined. Individuals were informed of which taste modality (sweet, bitter, salt, sour) they were receiving but were given no indication of whether the tester thought they would be able to recognise the taste or not.
# The taste modalities were applied in solution to the tip of the tongue, using a cotton bud saturated with the solution at room temperature and placed on the tongue for approximately 5 seconds. Without closing their mouth the subject was asked to indicate whether or not they could taste the stimulus at that concentration. Between each stimulus application a 20 second inter-stimulus interval was adhered to during which the subject would rinse their mouth with approximately 25 ml of deionized water.
# Each concentration of stimulus was presented to the subject five times in total, and the percentage of positive responses at each concentration determined. Subjects were first presented with a solution above threshold and thereafter, stimuli were presented in a pseudorandom order in concentrations representing ¼ log steps between the lowest (undetectable, 0% detection) to the highest (always detectable, 100% detection) concentrations, with each concentration being presented 5 times.
# The range of concentrations for each taste modality was different, as detailed below: • Sweet (1M-300 μM sucrose) • Bitter (300 μM-0.3 μM quinine hydrochloride) • Salt (1M-0.2 mM NaCl) • Sour (100 mM-0.56 mM citric acid; C6H8O7).
# Taste psychometric functions before and after paroxetine administration were also determined for all the individuals with previously untreated depression. From these curves, taste recognition thresholds (the concentration at which the subject would recognize the taste 50% of the time) were calculated before and after challenge in order to determine the degree of change in taste recognition that occurred (Heath et al., (2006) Journal of Neuroscience 26(49): 12664-71).
# Taste recognition thresholds were determined by testing a solution of a taste modality (sweet, salt, sour, bitter) on the tip of the tongue, and the subject confirmed whether or not they recognised the taste. Referring to FIG. 3, a curve was then constructed of the number of correct identifications against the concentration of the taste in the solution. The taste recognition threshold was calculated from the curve as the concentration at which the subject would correctly identify the taste 50% of the time (Heath, Melichar, Nutt & Donaldson (2006) Journal of Neuroscience 26(49): 12664-71). […]
# Patients referred to a depression clinic in Hyderabad, India were screened and recruited to the study. They had their taste recognition threshold assessed before and two hours after taking an antidepressant (Paroxetine, SSRI). […]
Compound,bitter and sour thresholds (healthy volunteers),bitter and sweet taste thresholds (healthy volunteers),"post-challenge taste recognition thresholds versus healthy controls ([1]; all taste modalities, controls without challenge)","post-challenge taste recognition thresholds versus pre-challenge values (statistical significance) ([1]; salt, sweet, sour and bitter, Kruskal Wallis, post-hoc Dunn's tests)","taste recognition thresholds after acute challenge compared with baseline ([1]; salt, sweet, sour and bitter, paroxetine 20 mg, two hours after challenge, n=47)",effect on depressive symptoms ([1]; two hours after acute challenge)
CCOc1ccccc1OC(c1ccccc1)C1CNCCO1 (stereo not drawn) [reboxetine],significantly reduced,,,,,
Fc1ccc([C@@H]2CCNC[C@H]2COc2ccc3c(c2)OCO3)cc1 [paroxetine],,significantly reduced,significantly higher,not significantly different,reduced; also recorded: generally become lower,lack of immediate effect
